Assay results published in US11325900B2, “5-(pyrimidin-4-yl)thiazol-2-yl urea derivatives as therapeutic agents” (AUCENTRA HOLDINGS PTY LTD, priority 2018, dated 2022).

What was measured:
CDK8/CycC = biological target: T1, CDK8/CycC (Homo sapiens, UniProt P49336); assay: Radiometric protein kinase assay (33PanQinase Activity Assay, ProQinase); type: biochemical; conditions: 1.0 μM ATP, 1.0 μg/50 μL substrate RBER-IRStide, duplicate measurements, read-out: CDK8 Kinase inhibition IC50
T1 construct: purchased ProQinase GmbH, Freiburg, Germany
Description: The kinase activity of CDK8/CycC was measured using a radiometric protein kinase assay (33PanQinase® Activity Assay) by ProQinase GmbH, Freiburg, Germany, with the protocols shown at www.proqinase.com/sites/default/files/public/uploads/WildtypeProfiler/radiometric_assay_v05_2012_manual.pdf. IC50 determination (8.3 nM with 1.0 μM ATP and 1.0 μg/50 μL of substrate RBER-IRStide) was performed as duplicate measurements and calculated using Quattro Workflow V3.1.1 (Quattro Research GmbH, Germany). Apparent inhibition constants (Ki) values were calculated from Km (ATP) and IC50 values for the respective kinases.

MV-4-11 = assay: Cell viability assay (resazurin, leukemia cell lines), 72 h growth inhibition; type: cell-based; conditions: Homo sapiens, MV4-11, MV-4-11 cells
From the text: Compounds from Example 1 may be subjected to a standard MTT (3-(4,5-dimethylthiazol-2-yl)-2,5-diphenyltetrazolium bromide) and resazurin assays on solid tumour cell lines and leukemia cell lines, respectively, as previously reported (Wang S et al., J Med Chem 47:1662-1675, 2004 and Diab S e al. CheMedChem 9:962-972, 2014). Compound concentrations required to inhibit 50% of cell growth (GI50) can be calculated using non-linear regression analysis.

T1 sequence (P49336 whole entry): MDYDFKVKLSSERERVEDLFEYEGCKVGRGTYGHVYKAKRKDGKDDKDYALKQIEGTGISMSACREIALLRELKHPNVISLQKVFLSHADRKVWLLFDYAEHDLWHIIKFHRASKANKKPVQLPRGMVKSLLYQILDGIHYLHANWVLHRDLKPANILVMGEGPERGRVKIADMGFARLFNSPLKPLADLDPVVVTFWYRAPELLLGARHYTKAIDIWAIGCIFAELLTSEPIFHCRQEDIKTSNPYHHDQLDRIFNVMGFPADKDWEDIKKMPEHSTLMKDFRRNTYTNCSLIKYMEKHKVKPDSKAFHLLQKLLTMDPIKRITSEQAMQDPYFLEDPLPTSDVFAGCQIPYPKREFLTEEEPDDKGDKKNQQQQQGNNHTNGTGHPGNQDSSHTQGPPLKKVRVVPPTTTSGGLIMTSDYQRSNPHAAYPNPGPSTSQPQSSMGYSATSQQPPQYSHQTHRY
T1 sequence (P24863 whole entry partner): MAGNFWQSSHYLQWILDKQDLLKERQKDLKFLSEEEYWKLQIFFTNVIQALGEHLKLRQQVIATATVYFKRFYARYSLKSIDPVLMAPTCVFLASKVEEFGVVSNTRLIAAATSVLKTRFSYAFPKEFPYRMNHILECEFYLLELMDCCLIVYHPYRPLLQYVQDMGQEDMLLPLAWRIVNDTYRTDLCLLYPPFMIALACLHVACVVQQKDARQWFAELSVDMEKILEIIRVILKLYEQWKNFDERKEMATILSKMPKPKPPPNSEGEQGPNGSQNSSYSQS

Row | SMILES | IC50 (CDK8/CycC) [nM] | GI50 (MV-4-11) [nM]
1 | CNc1nccc(-c2sc(NC(=O)Nc3ccccc3C(F)(F)F)nc2C)n1 [Compound 2, 1-(4-Methyl-5-(2-(methylamino)-pyrimidin-4-yl)thiazol-2-yl)-3-(2-(trifluoromethyl)phenyl)urea] | 1360 | –
2 | CNc1nccc(-c2sc(NC(=O)Nc3ccc(F)cc3C)nc2C)n1 [Compound 6, 1-(4-Fluoro-2-methylphenyl)-3-(4-methyl-5-(2-(methylamino)-pyrimidin-4-yl)thiazol-2-yl)urea] | 233 | –
3 | CNc1nccc(-c2sc(NC(=O)Nc3ccc(F)cc3C(F)(F)F)nc2C)n1 [Compound 7, 1-(4-fluoro-2-(trifluoromethyl)-phenyl)-3-(4-methyl-5-(2-(methylamino)-pyrimidin-4-yl)thiazol-2-yl)urea] | 2300 | –
4 | CNc1nccc(-c2sc(NC(=O)Nc3ccc(C(F)(F)F)cc3C(F)(F)F)nc2C)n1 [Compound 8, 1-(2,4-Bis(trifluoromethyl)phenyl)-3-(4-methyl-5-(2-(methylamino)-pyrimidin-4-yl)thiazol-2-yl)urea] | 65 | –
5 | CNc1nccc(-c2sc(NC(=O)Nc3cccc(OC)c3)nc2C)n1 [Compound 16, 1-(3-Methoxyphenyl)-3-(4-methyl-5-(2-(methylamino)pyrimidin-4-yl)thiazol-2-yl)urea] | 9 | 2270 ± 680
6 | CNc1nccc(-c2sc(NC(=O)Nc3ccc(CN4CCN(C(C)C)CC4)c(C(F)(F)F)c3)nc2C)n1 [Compound 34, 1-(4-((4-Isopropylpiperazin-1-yl)methyl)-3-(trifluoromethyl)-phenyl)-3-(4-methyl-5-(2-(methylamino)pyrimidin-4-yl)thiazol-2-yl)urea] | 11 | < 1
7 | CNc1nccc(-c2sc(NC(=O)Nc3ccc(CN4CCN(C(C)=O)CC4)c(C(F)(F)F)c3)nc2C)n1 [Compound 35, 1-(4-((4-Acetylpiperazin-1-yl)methyl)-3-(trifluoromethyl)-phenyl)-3-(4-methyl-5-(2-(methylamino)pyrimidin-4-yl)thiazol-2-yl)urea] | 14 | 85
8 | CNc1nccc(-c2sc(NC(=O)Nc3ccc(CN4CCN(S(C)(=O)=O)CC4)c(C(F)(F)F)c3)nc2C)n1 [Compound 36, 1-(4-Methyl-5-(2-(methylamino)-pyrimidin-4-yl)thiazol-2-yl)-3-(4-((4-(methylsulfonyl)piperazin-1-yl)methyl)-3-(trifluoromethyl)-phenyl)urea] | 32 | 76 ± 10
9 | CNc1nccc(-c2sc(NC(=O)Nc3ccc(CN4CCCCC4)c(C(F)(F)F)c3)nc2C)n1 [Compound 38, 1-(4-Methyl-5-(2-(methylamino)-pyrimidin-4-yl)thiazol-2-yl)-3-(4-(piperidin-1-ylmethyl)-3-(trifluoromethyl)phenyl)urea] | – | 994 ± 130
10 | CNc1nccc(-c2sc(NC(=O)Nc3ccc(CN4CCC(N)CC4)c(C(F)(F)F)c3)nc2C)n1 [Compound 39, 1-(4-((4-Aminopiperidin-1-yl)methyl)-3-(trifluoromethyl)-phenyl)-3-(4-methyl-5-(2-(methylamino)pyrimidin-4-yl)thiazol-2-yl)urea] | 8 | 96
11 | CNc1nccc(-c2sc(NC(=O)Nc3ccc(CN4CCC(C)CC4)c(C(F)(F)F)c3)nc2C)n1 [Compound 40, 1-(4-Methyl-5-(2-(methylamino)-pyrimidin-4-yl)thiazol-2-yl)-3-(4-((4-methylpiperidin-1-yl)methyl)-3-(trifluoromethyl)phenyl)urea] | 34 | 2510 ± 390
12 | CNc1nccc(-c2sc(NC(=O)Nc3ccc(C(F)(F)F)cc3)nc2C)n1 [Compound 41, 1-(4-Methyl-5-(2-(methylamino)pyrimidin-4-yl)thiazol-2-yl)-3-(4-(trifluoromethyl)phenyl)urea] | 19 | –
13 | Cc1nc(NC(=O)Nc2ccc(CN3CCN(C)CC3)c(C(F)(F)F)c2)sc1-c1ccnc(N(C)C)n1 [Compound 49, 1-(5-(2-(Dimethylamino)pyrimidin-4-yl)-4-methylthiazol-2-yl)-3-(4-((4-methylpiperazin-1-yl)methyl)-3-(trifluoromethyl)phenyl)urea] | 82 | < 1
14 | CC(=O)N1CCN(Cc2ccc(NC(=O)Nc3nc(C)c(-c4ccnc(N(C)C)n4)s3)cc2C(F)(F)F)CC1 [Compound 50, 1-(4-((4-Acetylpiperazin-1-yl)methyl)-3-(trifluoromethyl)-phenyl)-3-(5-(2-(dimethylamino)-pyrimidin-4-yl)-4-methylthiazol-2-yl)urea] | 202 | 612 ± 60
15 | CCNc1nccc(-c2sc(NC(=O)Nc3ccc(CN4CCN(C)CC4)c(C(F)(F)F)c3)nc2C)n1 [Compound 52, 1-(5-(2-(Ethylamino)pyrimidin-4-yl)-4-methylthiazol-2-yl)-3-(4-((4-methylpiperazin-1-yl)methyl)-3-(trifluoromethyl)phenyl)urea] | 15 | < 1

Next, values leading:

Row | IC50 (CDK8/CycC) [nM] | GI50 (MV-4-11) [nM] | SMILES
16 | 90 | < 1 | CCNc1nccc(-c2sc(NC(=O)Nc3ccc(CN4CCN(CC)CC4)c(C(F)(F)F)c3)nc2C)n1 [Compound 53, 1-(5-(2-(Ethylamino)pyrimidin-4-yl)-4-methylthiazol-2-yl)-3-(4-((4-ethylpiperazin-1-yl)methyl)-3-(trifluoromethyl)phenyl)urea]
17 | 16 | < 1 | CCNc1nccc(-c2sc(NC(=O)Nc3ccc(CN4CCN(C(C)C)CC4)c(C(F)(F)F)c3)nc2C)n1 [Compound 54, 1-(5-(2-(ethylamino)pyrimidin-4-yl)-4-methylthiazol-2-yl)-3-(4-((4-isopropylpiperazin-1-yl)methyl)-3-(trifluoromethyl)phenyl)urea]
18 | 35 | 214 ± 120 | CCNc1nccc(-c2sc(NC(=O)Nc3ccc(CN4CCN(C(C)=O)CC4)c(C(F)(F)F)c3)nc2C)n1 [Compound 55, 1-(4-((4-Acetylpiperazin-1-yl)methyl)-3-(trifluoromethyl)-phenyl)-3-(5-(2-(ethylamino)-pyrimidin-4-yl)-4-methylthiazol-2-yl)urea]
19 | 21 | 529 ± 120 | CCNc1nccc(-c2sc(NC(=O)Nc3ccc(CN4CCOCC4)c(C(F)(F)F)c3)nc2C)n1 [Compound 56, 1-(5-(2-(Ethylamino)pyrimidin-4-yl)-4-methylthiazol-2-yl)-3-(4-(morpholinomethyl)-3-(trifluoromethyl)phenyl)urea]
20 | 49 | 6160 ± 140 | CCNc1nccc(-c2sc(NC(=O)Nc3ccc(CN4CCC(C)CC4)c(C(F)(F)F)c3)nc2C)n1 [Compound 57, 1-(5-(2-(Ethylamino)pyrimidin-4-yl)-4-methylthiazol-2-yl)-3-(4-((4-methylpiperidin-1-yl)methyl)-3-(trifluoromethyl)phenyl)urea]
21 | 7 | 1 | CNc1nccc(-c2cnc(NC(=O)Nc3ccc(CN4CCN(C)CC4)c(C(F)(F)F)c3)s2)n1 [Compound 58, 1-(5-(2-(Methylamino)pyrimidin-4-yl)thiazol-2-yl)-3-(4-((4-methylpiperazin-1-yl)methyl)-3-(trifluoromethyl)phenyl)urea]
22 | 12 | 1 | CCN1CCN(Cc2ccc(NC(=O)Nc3ncc(-c4ccnc(NC)n4)s3)cc2C(F)(F)F)CC1 [Compound 59, 1-(4-((4-Ethylpiperazin-1-yl)methyl)-3-(trifluoromethyl)phenyl)-3-(5-(2-(methylamino)pyrimidin-4-yl)thiazol-2-yl)urea]
23 | 16 | 7 | CNc1nccc(-c2cnc(NC(=O)Nc3ccc(CN4CCN(C(C)C)CC4)c(C(F)(F)F)c3)s2)n1 [Compound 60, 1-(4-((4-Isopropylpiperazin-1-yl)methyl)-3-(trifluoromethyl)phenyl)-3-(5-(2-(methylamino)pyrimidin-4-yl)thiazol-2-yl)urea]
24 | 20 | 176 ± 40 | CNc1nccc(-c2cnc(NC(=O)Nc3ccc(CN4CCN(C(C)=O)CC4)c(C(F)(F)F)c3)s2)n1 [Compound 61, 1-(4-((4-Acetylpiperazin-1-yl)methyl)-3-(trifluoromethyl)phenyl)-3-(5-(2-(methylamino)pyrimidin-4-yl)thiazol-2-yl)urea]
25 | 14 | 1 | CCN1CCN(Cc2ccc(NC(=O)Nc3nc(C)c(-c4ccnc(N)n4)s3)cc2C(F)(F)F)CC1 [Compound 62, 1-(5-(2-Aminopyrimidin-4-yl)-4-methylthiazol-2-yl)-3-(4-((4-ethylpiperazin-1-yl)methyl)-3-(trifluoromethyl)phenyl)urea]
26 | 13 | 3 | Cc1nc(NC(=O)Nc2ccc(CN3CCN(C(C)C)CC3)c(C(F)(F)F)c2)sc1-c1ccnc(N)n1 [Compound 63, 1-(5-(2-Aminopyrimidin-4-yl)-4-methylthiazol-2-yl)-3-(4-((4-isopropylpiperazin-1-yl)methyl)-3-(trifluoromethyl)phenyl)urea]
27 | 15 | 275 ± 50 | Cc1nc(NC(=O)Nc2ccc(CN3CCOCC3)c(C(F)(F)F)c2)sc1-c1ccnc(N)n1 [Compound 64, 1-(5-(2-Aminopyrimidin-4-yl)-4-methylthiazol-2-yl)-3-(4-(morpholinomethyl)-3-(trifluoromethyl)phenyl)urea]
